# Measured values as given in PubChem BioAssay (NCI).
#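 Five compound concentrations were applied to cells in 96-well plates for 48 hours; endpoints were derived by simple linear interpolation of the resulting dose-response curve. Here, GI50 denotes the concentration required for 50% inhibition of growth. TGI marks complete inhibition of growth.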
# Tests used:
# Assay in all cases: growth of human tumour cells (NCI), 48 h
# NCI/ADR-RES ovarian = test system: NCI/ADR-RES ovarian
# UACC-257 melanoma = test system: UACC-257 melanoma
# K-562 leukemia = test system: K-562 leukemia
# RPMI-8226 leukemia = test system: RPMI-8226 leukemia
# SK-MEL-5 melanoma = test system: SK-MEL-5 melanoma
# SNB-19 CNS = test system: SNB-19 CNS
# NCI-H460 lung = test system: NCI-H460 lung
# LOX IMVI melanoma = test system: LOX IMVI melanoma
# OVCAR-4 ovarian = test system: OVCAR-4 ovarian
# MALME-3M melanoma = test system: MALME-3M melanoma
# U251 CNS = test system: U251 CNS
# ACHN renal = test system: ACHN renal
# HS 578T breast = test system: HS 578T breast
# SW-620 colon = test system: SW-620 colon
# SF-539 CNS = test system: SF-539 CNS
# HOP-62 NSCLC = test system: HOP-62 NSCLC
# SK-MEL-28 melanoma = test system: SK-MEL-28 melanoma
# OVCAR-5 ovarian = test system: OVCAR-5 ovarian
# PC-3 prostate = test system: PC-3 prostate
# SK-OV-3 ovarian = test system: SK-OV-3 ovarian
# CCRF-CEM leukemia = test system: CCRF-CEM leukemia
# UO-31 renal = test system: UO-31 renal
# NCI-H23 lung = test system: NCI-H23 lung
# T-47D breast = test system: T-47D breast
# HOP-92 NSCLC = test system: HOP-92 NSCLC
# BT-549 breast = test system: BT-549 breast
# CAKI-1 renal = test system: CAKI-1 renal
# HCT-15 colon = test system: HCT-15 colon
# MOLT-4 leukemia = test system: MOLT-4 leukemia
# UACC-62 melanoma = test system: UACC-62 melanoma
# MCF7 breast = test system: MCF7 breast
# A549 NSCLC = test system: A549 NSCLC
# HT29 colon = test system: HT29 colon
# COLO 205 colon = test system: COLO 205 colon
# TK-10 renal = test system: TK-10 renal
# 786-0 renal = test system: 786-0 renal
# SF-268 CNS = test system: SF-268 CNS
# RXF 393 renal = test system: RXF 393 renal
# OVCAR-8 ovarian = test system: OVCAR-8 ovarian
# IGROV1 ovarian = test system: IGROV1 ovarian
# MDA-MB-231 breast = test system: MDA-MB-231 breast
# NCI-H522 lung = test system: NCI-H522 lung
# A498 renal = test system: A498 renal
# SK-MEL-2 melanoma = test system: SK-MEL-2 melanoma
# NCI-H226 lung = test system: NCI-H226 lung
# EKVX NSCLC = test system: EKVX NSCLC
# HCC-2998 colon = test system: HCC-2998 colon
# HCT-116 colon = test system: HCT-116 colon
# SNB-75 CNS = test system: SNB-75 CNS
# KM12 colon = test system: KM12 colon
# HL-60(TB) leukemia = test system: HL-60(TB) leukemia
# SR leukemia = test system: SR leukemia
# M14 melanoma = test system: M14 melanoma
# OVCAR-3 ovarian = test system: OVCAR-3 ovarian
# MDA-MB-435 = test system: MDA-MB-435
# DU-145 prostate = test system: DU-145 prostate
# SF-295 CNS = test system: SF-295 CNS
# SN12C renal = test system: SN12C renal
# MDA-N = test system: MDA-N
smiles,measurement,setting,value
CC(C)=CCC[C@](C)(O)[C@H]1CC[C@]2(C)[C@@H]1CC[C@@H]1[C@@]3(C)CC/C(=N/O)C(C)(C)[C@@H]3CC[C@]12C,GI50,NCI/ADR-RES ovarian,18.9 µM
same,TGI,NCI/ADR-RES ovarian,> 100 µM
same,GI50,UACC-257 melanoma,29.5 µM
same,TGI,UACC-257 melanoma,> 100 µM
same,GI50,K-562 leukemia,6.06 µM
same,TGI,K-562 leukemia,> 100 µM
same,GI50,RPMI-8226 leukemia,7.68 µM
same,TGI,RPMI-8226 leukemia,> 100 µM
same,GI50,SK-MEL-5 melanoma,19.4 µM
same,TGI,SK-MEL-5 melanoma,> 100 µM
same,GI50,SNB-19 CNS,12.2 µM
same,TGI,SNB-19 CNS,> 100 µM
same,GI50,NCI-H460 lung,5.54 µM
same,TGI,NCI-H460 lung,> 100 µM
same,GI50,LOX IMVI melanoma,15.7 µM
same,TGI,LOX IMVI melanoma,83 µM
same,GI50,OVCAR-4 ovarian,13.9 µM
same,TGI,OVCAR-4 ovarian,> 100 µM
same,GI50,MALME-3M melanoma,8.25 µM
same,TGI,MALME-3M melanoma,32.6 µM
same,GI50,U251 CNS,12.8 µM
same,TGI,U251 CNS,49.4 µM
same,GI50,ACHN renal,11.6 µM
same,TGI,ACHN renal,35.7 µM
same,GI50,HS 578T breast,20.2 µM
same,TGI,HS 578T breast,> 100 µM
same,GI50,SW-620 colon,6.98 µM
same,TGI,SW-620 colon,> 100 µM
same,GI50,SF-539 CNS,24.3 µM
same,TGI,SF-539 CNS,> 100 µM
same,GI50,HOP-62 NSCLC,11.1 µM
same,TGI,HOP-62 NSCLC,40.9 µM
same,GI50,SK-MEL-28 melanoma,26.5 µM
same,TGI,SK-MEL-28 melanoma,> 100 µM
same,GI50,OVCAR-5 ovarian,22.2 µM
same,TGI,OVCAR-5 ovarian,> 100 µM
same,GI50,PC-3 prostate,7.87 µM
same,TGI,PC-3 prostate,35.9 µM
same,GI50,SK-OV-3 ovarian,25.7 µM
same,TGI,SK-OV-3 ovarian,> 100 µM
same,GI50,CCRF-CEM leukemia,14.2 µM
same,TGI,CCRF-CEM leukemia,> 100 µM
same,GI50,UO-31 renal,16.9 µM
same,TGI,UO-31 renal,> 100 µM
same,GI50,NCI-H23 lung,8.68 µM
same,TGI,NCI-H23 lung,41.7 µM
same,GI50,T-47D breast,2.86 µM
same,TGI,T-47D breast,88.1 µM
same,GI50,HOP-92 NSCLC,7.48 µM
same,TGI,HOP-92 NSCLC,26.2 µM
same,GI50,BT-549 breast,27.4 µM
same,TGI,BT-549 breast,> 100 µM
same,GI50,CAKI-1 renal,10.4 µM
same,TGI,CAKI-1 renal,50.7 µM
same,GI50,HCT-15 colon,10.6 µM
same,TGI,HCT-15 colon,> 100 µM
same,GI50,MOLT-4 leukemia,10.1 µM
same,TGI,MOLT-4 leukemia,> 100 µM
same,GI50,UACC-62 melanoma,17.8 µM
same,TGI,UACC-62 melanoma,> 100 µM
same,GI50,MCF7 breast,4.2 µM
same,TGI,MCF7 breast,> 100 µM
same,GI50,A549 NSCLC,5.86 µM
same,TGI,A549 NSCLC,62.9 µM
same,GI50,HT29 colon,3.41 µM
same,TGI,HT29 colon,20.8 µM
same,GI50,COLO 205 colon,11.4 µM
same,TGI,COLO 205 colon,> 100 µM
same,GI50,TK-10 renal,18 µM
same,TGI,TK-10 renal,63.5 µM
same,GI50,786-0 renal,14.3 µM
same,TGI,786-0 renal,69.3 µM
same,GI50,SF-268 CNS,21.5 µM
same,TGI,SF-268 CNS,> 100 µM
same,GI50,RXF 393 renal,8.23 µM
same,TGI,RXF 393 renal,38.4 µM
same,GI50,OVCAR-8 ovarian,12 µM
same,TGI,OVCAR-8 ovarian,86.2 µM
same,GI50,IGROV1 ovarian,20 µM
same,TGI,IGROV1 ovarian,76.6 µM
same,GI50,MDA-MB-231 breast,9.95 µM
same,TGI,MDA-MB-231 breast,37.4 µM
same,GI50,NCI-H522 lung,13.5 µM
same,TGI,NCI-H522 lung,99 µM
same,GI50,A498 renal,51.2 µM
same,TGI,A498 renal,> 100 µM
same,GI50,SK-MEL-2 melanoma,15.3 µM
same,TGI,SK-MEL-2 melanoma,60.5 µM
same,GI50,NCI-H226 lung,9.75 µM
same,TGI,NCI-H226 lung,47.5 µM
same,GI50,EKVX NSCLC,10.1 µM
same,TGI,EKVX NSCLC,> 100 µM
same,GI50,HCC-2998 colon,12.9 µM
same,TGI,HCC-2998 colon,50.8 µM
same,GI50,HCT-116 colon,4.13 µM
same,TGI,HCT-116 colon,27.2 µM
same,GI50,SNB-75 CNS,25.4 µM
same,TGI,SNB-75 CNS,> 100 µM
same,GI50,KM12 colon,12.5 µM
same,TGI,KM12 colon,> 100 µM
same,GI50,HL-60(TB) leukemia,8.69 µM
same,TGI,HL-60(TB) leukemia,> 100 µM
same,GI50,SR leukemia,7.65 µM
same,TGI,SR leukemia,49.4 µM
same,GI50,M14 melanoma,16.3 µM
same,TGI,M14 melanoma,> 100 µM
same,GI50,OVCAR-3 ovarian,10.6 µM
same,TGI,OVCAR-3 ovarian,39.2 µM
same,GI50,MDA-MB-435,21.4 µM
same,TGI,MDA-MB-435,> 100 µM
same,GI50,DU-145 prostate,13.8 µM
same,TGI,DU-145 prostate,> 100 µM
same,GI50,SF-295 CNS,12.2 µM
same,TGI,SF-295 CNS,42.3 µM
same,GI50,SN12C renal,8.48 µM
same,TGI,SN12C renal,35.2 µM
O=C1c2ccccc2-c2nnc3c(c21)-c1ccccc1C3,TGI,NCI/ADR-RES ovarian,> 100 µM
same,TGI,MDA-N,> 100 µM
same,TGI,UACC-257 melanoma,> 100 µM
same,TGI,RPMI-8226 leukemia,> 100 µM
same,TGI,SK-MEL-5 melanoma,> 100 µM
same,TGI,SNB-19 CNS,> 100 µM
same,TGI,NCI-H460 lung,> 100 µM
same,TGI,MALME-3M melanoma,> 100 µM
same,TGI,U251 CNS,> 100 µM
same,TGI,ACHN renal,84.6 µM
same,TGI,HS 578T breast,> 100 µM
same,TGI,SW-620 colon,> 100 µM
same,TGI,SF-539 CNS,> 100 µM
same,TGI,OVCAR-5 ovarian,> 100 µM
same,TGI,PC-3 prostate,> 100 µM
same,TGI,SK-OV-3 ovarian,> 100 µM
same,TGI,CCRF-CEM leukemia,> 100 µM
same,TGI,UO-31 renal,> 100 µM
same,TGI,NCI-H23 lung,> 100 µM
same,TGI,T-47D breast,> 100 µM
same,TGI,HOP-92 NSCLC,> 100 µM
same,TGI,CAKI-1 renal,> 100 µM
same,TGI,HCT-15 colon,> 100 µM
same,TGI,MOLT-4 leukemia,80.8 µM
same,TGI,UACC-62 melanoma,> 100 µM
same,TGI,MCF7 breast,> 100 µM
same,TGI,A549 NSCLC,> 100 µM
same,TGI,HT29 colon,> 100 µM
same,TGI,COLO 205 colon,> 100 µM
same,TGI,786-0 renal,> 100 µM
same,TGI,SF-268 CNS,> 100 µM
same,TGI,RXF 393 renal,> 100 µM
same,TGI,OVCAR-8 ovarian,> 100 µM
same,TGI,MDA-MB-231 breast,> 100 µM
same,TGI,NCI-H522 lung,> 100 µM
same,TGI,SK-MEL-2 melanoma,> 100 µM
same,TGI,NCI-H226 lung,> 100 µM
same,TGI,EKVX NSCLC,> 100 µM
same,TGI,HCT-116 colon,> 100 µM
same,TGI,SNB-75 CNS,> 100 µM
same,TGI,KM12 colon,> 100 µM
same,TGI,HL-60(TB) leukemia,> 100 µM
same,TGI,SR leukemia,> 100 µM
same,TGI,M14 melanoma,> 100 µM
same,TGI,MDA-MB-435,> 100 µM
same,TGI,DU-145 prostate,> 100 µM
same,TGI,SF-295 CNS,> 100 µM
same,TGI,SN12C renal,> 100 µM
